According to PMC10945480 (Journal of Medicinal Chemistry, 2024):
Like-named read-outs stand apart in the source and are kept apart here.

Experiments:
[1] = tested on: washed human platelets; assay: U46619-induced platelet aggregation; type: cell-based; conditions: for IC50: Platelet, washed human platelets, U46619 (1 μM)
Method: (§1) The antiplatelet effects of the JUG derivatives were evaluated by measuring human platelet aggregation, which can be regulated by cell surface PDI. Platelet aggregation was induced with platelet activators U46619 (a mimetic of thromboxane A2) and collagen (binding to GPVI).
(§2) Washed human platelets were prepared from acid citrate dextrose-anticoagulated blood of healthy human volunteers as described previously.[73] The study was approved by the Institutional Review Board of Kaohsiung Medical University, and informed consent was obtained from every volunteer. Platelet aggregation was measured by using a turbidimetric aggregometer (Chrono-Log Co., USA) under stirring conditions (1200 rpm) at 37 °C. The extent of platelet aggregation was measured as the maximal increase of light transmission after the addition of the stimulators U46619 and collagen.[73] In the TCIPA assay, platelet aggregation was induced by A549 (1 × 10^4 cells/mL), MDA-MB-231 (1 × 10^2 cells/mL), or RPMI8226 (1 × 10^5 cells/mL) cancer cells in the presence of 0.375% plasma.[74]

[2] = tested on: washed human platelets; assay: Collagen-induced platelet aggregation; type: cell-based; conditions: for IC50: Platelet, washed human platelets, collagen (5 μg/mL)
Method: as §1, §2

[3] = Parallel artificial membrane permeability assay (PAMPA); conditions: 50 μM, 3 h
Method: 1. Parallel artificial membrane permeability assay (PAMPA). […]
evolution instruments from pION Inc. In the PAMPA assay, a set of sandwich plates consists of a 96-well microtiter donor plate at the bottom and a 96-well filter acceptor plate on the top from […]
The stock solutions of samples were prepared at 10 mM concentrations in DMSO and stored at 0 ℃ before use. Before being added to a 96-well filter plate, the stock solution was diluted first with buffer to achieve a final sample concentration of 50 μM and to reduce the DMSO concentration below 1% (v/v). Each well of the 96-well donor plate was filled with a 200 μL diluted sample solution (50 μM), and the 96-well filter acceptor plate was then wetted with a 5 μL 2% w/v dioleyoylphosphatidylcholine (DOPC) in n-dodecane and subsequently placed on the donor wells.
Immediately, the acceptor wells were filled with 200 μL of buffer solution and the PAMPA plate sandwich was sealed and incubated at 25 ℃ for 3 h. After reaching the permeation time, the PAMPA plate sandwich was separated and transferred to 96-well UV plates respectively. The amounts of drugs in both the donor and acceptor compartments were measured by comparing the experimental spectra with the UV spectrum (220∼400 nm) obtained from reference standards.

[4] = tested on: glioma U87; assay: Cell viability, resazurin assay, U87; conditions: Homo sapiens, 24 h, read-out: U87 IC50
Method: (§3) Cells were maintained in a humidified incubator at 37 °C in 5% CO2, and cell viability was determined with the resazurin assay (Cayman Chemical, USA) after the incubation with compounds for indicated concentrations and times or DMSO as control.[72]

[5] = tested on: lung cancer A549; assay: Cell viability, resazurin assay, A549; conditions: for IC50: Homo sapiens, A549, 24 h, read-out: A549 IC50
Method: as §3

[6] = tested on: multiple myeloma RPMI8226; assay: Cell viability, resazurin assay, RPMI8226; conditions: for IC50: Homo sapiens; for S.I. (EAhy926/RPMI8226), selectivity index: 24 h IC50 ratio
Method: as §3

[7] = tested on: breast cancer MDA-MB-231; assay: Cell viability, resazurin assay, MDA-MB-231; conditions: for IC50: Homo sapiens, MDA-MB-231, 24 h, read-out: MDA-MB-231 IC50
Method: as §3

[8] = biological target: platelet surface PDI (Homo sapiens, UniProt P07237); assay: Cell surface PDI reductase activity on intact human platelets (Di-E-GSSG assay); conditions: read-out: Surface PDI IC50; intact human platelets, Di-E-GSSG, 5 μM DTT
Sequence of platelet surface PDI (P07237 18-508): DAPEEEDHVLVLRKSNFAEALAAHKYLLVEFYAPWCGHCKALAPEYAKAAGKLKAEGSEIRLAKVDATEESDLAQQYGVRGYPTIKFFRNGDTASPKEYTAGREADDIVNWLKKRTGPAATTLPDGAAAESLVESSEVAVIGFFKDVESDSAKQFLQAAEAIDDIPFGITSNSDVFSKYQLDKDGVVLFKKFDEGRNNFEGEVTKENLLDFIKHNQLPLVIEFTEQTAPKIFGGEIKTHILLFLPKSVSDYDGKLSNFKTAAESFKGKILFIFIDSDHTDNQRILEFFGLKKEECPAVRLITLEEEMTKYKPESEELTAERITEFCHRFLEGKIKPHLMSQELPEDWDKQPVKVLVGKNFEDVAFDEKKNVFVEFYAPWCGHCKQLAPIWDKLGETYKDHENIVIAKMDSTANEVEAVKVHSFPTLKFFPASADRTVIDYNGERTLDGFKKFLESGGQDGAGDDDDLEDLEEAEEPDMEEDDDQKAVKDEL
Method: (§4) In this assay, a nonfluorescent substrate, dieosin glutathione disulfide (Di-E-GSSG), was reduced into a fluorescent product eosin-glutathione (E-GSH) by platelet surface PDI in the presence of 5 μM dithiothreitol (DTT).

[9] = tested on: human vascular endothelial EA.hy926 cells; assay: Cell viability, resazurin assay, EA.hy926; conditions: EA.hy 926, 24 h, read-out: EAhy926 IC50
Method: as §3

[10] = biological target: purified human recombinant PDI (rPDI) (Homo sapiens, UniProt P07237); assay: Recombinant PDI reductase activity (Di-E-GSSG assay); conditions: read-out: rPDI IC50; human recombinant PDI, Di-E-GSSG, 5 μM DTT
Sequence of purified human recombinant PDI (rPDI) (P07237 18-508): as above
Method: as §4

[11] = 25 ℃, verapamil = 100%, ranitidine = 0%
[12] = RPMI-8226, 24 h, read-out: RPMI8226 IC50
[13] = concentrations up to 40 μM, unpublished data

IC50 [1] [µM] | IC50 [2] [µM] | Permeability (%) [3, 11] [%] | IC50 [4] [µM] | IC50 [5] [µM] | IC50 [6, 12] [µM] | IC50 [7] [µM] | IC50 [8] [µM] | IC50 [10] [µM] | IC50 ([6]; RPMI-8226, 72 h, read-out: RPMI8226 IC50, 72 h) [µM] | SMILES | Permeability (%) [3] [%] | S.I. (EAhy926/RPMI8226), selectivity index [6] | IC50 [9] [µM] | effect on U46619-induced platelet aggregation [1, 13] | effect on collagen-induced platelet aggregation [2, 13] | effect on cell viability of A549 ([5]; unpublished data) | effect on cell viability of RPMI8226 ([6]; unpublished data) | effect on cell viability of MDA-MB-231 ([7]; unpublished data)
> 20 | 16 ± 2.11 | 30.2 | > 20 | > 100 | > 20 | > 100 | > 20 |  |  | CN(C)C1=CC(=O)c2c(O)cccc2C1=O [Compound 24, 3-(Dimethylamino)-8-hydroxynaphthalene-1,4-dione] |  |  |  |  |  |  |  | 
4.61 ± 1.1 | 7.04 ± 1.71 | 42.95 | 5.13 ± 0.29 | 7.59 ± 0.16 | 3.88 ± 0.23 | 13.1 ± 1.59 | 0.53 ± 0.11 | 0.77 ± 0.2 |  | O=C1C=C(c2ccc(O)cc2O)C(=O)c2c(O)cccc21 [Compound 29, 2-(2,4-Dihydroxyphenyl)-8-hydroxynaphthalene-1,4-dione] |  | 1.4 | 5.49 ± 0.09 |  |  |  |  | 
> 20 | > 20 | 5.17 | > 20 | > 100 | > 20 | > 100 | > 20 |  |  | O=C1C(O)=CC(=O)c2c(O)cccc21 [Compound 26, 3,8-Dihydroxynaphthalene-1,4-dione] |  |  |  |  |  |  |  | 
2.43 ± 0.3 | 1.58 ± 0.88 | 2.7 | > 20 | 12.4 ± 1.56 | 2.26 ± 0.07 | 38.9 ± 4.89 | 1.28 ± 0.29 | 14 ± 1.67 |  | COc1ccc(SC2=CC(=O)c3cccc(O)c3C2=O)cc1OC [Compound 11, 2-((3,4-Dimethoxyphenyl)thio)-8-hydroxynaphthalene-1,4-dione] |  | >8.8 | > 20 |  |  |  |  | 
1.85 ± 0.17 | 0.64 ± 0.05 | 8.5 | > 20 | > 100 | 3.5 ± 0.26 | 15.1 ± 1.48 | 1.5 ± 0.05 | 1.29 ± 0.3 |  | CC(C)(C)c1ccc(SC2=CC(=O)c3cccc(O)c3C2=O)cc1 [Compound 13, 2-((4-(tert-Butyl)phenyl)thio)-8-hydroxynaphthalene-1,4-dione] |  | >5.7 | > 20 |  |  |  |  | 
1.6 ± 0.16 | 0.38 ± 0.13 | 38.9 | 8.06 ± 0.48 | 13.9 ± 0.53 | 0.77 ± 0.05 | 5.57 ± 0.7 | 0.84 ± 0.06 | 0.71 ± 0.04 |  | COc1cccc(SC2=CC(=O)c3cccc(O)c3C2=O)c1 [Compound 9, 2-((3-Methoxyphenyl)thio)-8-hydroxynaphthalene-1,4-dione] |  | 8.9 | 6.89 ± 0.12 |  |  |  |  | 
> 20 | > 20 | 5.21 | > 20 | > 100 | > 20 | > 100 | > 20 |  |  | O=C1C=C(O)C(=O)c2c(O)cccc21 [Compound 25, 2,8-Dihydroxynaphthalene-1,4-dione] |  |  |  |  |  |  |  | 
1.3 ± 0.35 | 0.75 ± 0.14 |  | 6.4 ± 0.12 | 16.1 ± 0.27 | 0.58 ± 0.03 | 6.92 ± 1.1 | 0.77 ± 0.2 | 1.5 ± 0.25 |  | O=C1C=C(Sc2ccc(O)cc2)C(=O)c2c(O)cccc21 [Compound 14, 2-((4-Hydroxyphenyl)thio)-8-hydroxynaphthalene-1,4-dione] |  | 9.8 | 5.69 ± 0.16 |  |  |  |  | 
13.7 ± 0.89 | > 20 | 1.08 | > 20 | > 20 | > 20 | > 100 | > 20 |  |  | COc1ccc(SC2=C(O)C(=O)c3c(O)cccc3C2=O)cc1 [Compound 27, 2,8-Dihydroxy-3-((4-methoxyphenyl)thio)naphthalene-1,4-dione] |  |  | > 20 |  |  |  |  | 
7.13 ± 1.82 | 2.57 ± 0.5 | 91.9 | > 20 | > 50 | 1.88 ± 0.08 | 10.7 ± 1.26 | 0.88 ± 0.12 |  |  | CCCCCSC1=CC(=O)c2cccc(O)c2C1=O [Compound 16, 2-(Pentylthio)-8-hydroxynaphthalene-1,4-dione] |  | >10.6 | > 20 |  |  |  |  | 
 |  |  | 7.86 ± 1.23 | 0.69 ± 0.2 | 5.24 ± 0.79 | 0.46 ± 0.01 |  |  | 0.08 | CC(C)C[C@H](NC(=O)[C@H](Cc1ccccc1)NC(=O)c1cnccn1)B(O)O [bortezomib, reference compound] |  | 0.017 | 0.09 ± 0.01 |  |  |  |  | 
> 20 | > 20 | 16.7 | > 20 | > 100 | > 20 | > 100 | > 20 |  |  | CN(C)C1=CC(=O)c2cccc(O)c2C1=O [Compound 23, 2-(Dimethylamino)-8-hydroxynaphthalene-1,4-dione] |  |  |  |  |  |  |  | 
2.66 ± 0.42 | 0.71 ± 0.03 | 28.4 | > 20 | 17.3 ± 0.9 | > 20 | > 100 | 0.79 ± 0.26 | 1.34 ± 0.12 |  | COc1ccccc1SC1=CC(=O)c2cccc(O)c2C1=O [Compound 10, 2-((2-Methoxyphenyl)thio)-8-hydroxynaphthalene-1,4-dione] |  |  |  |  |  |  |  | 
> 50 | > 50 | -0.96 | > 20 | > 100 | > 20 | > 100 | 1.17 ± 0.38 | 3.7 ± 1.22 |  | O=C1C=C(SC[C@H]2OC(O)[C@H](O)[C@@H](O)[C@@H]2O)C(=O)c2c(O)cccc21 (mixture of isomers) [Compound 19, 2-(6-Deoxy-6-thio-D-glucose)-8-hydroxynaphthalene-1,4-dione] |  |  |  |  |  |  |  | 
 |  |  | > 20 | 13 ± 0.29 | 8.77 ± 0.29 | 6.42 ± 0.29 |  |  |  | COc1ccc(N2C(=O)/C(=C\c3ccc([N+](=O)[O-])s3)SC2=S)cc1 [CCF642, reference compound] |  | 0.64 | 5.57 ± 0.25 |  |  |  |  | 
 |  |  |  |  |  |  |  |  |  | CC(C)(C)CN(C(=O)CCl)C1CCS(=O)(=O)C1 (centres unmarked) [sulfopin, reference compound] |  |  |  | does not show any effect | does not show any effect | no significant impacts | no significant impacts | no significant impacts
> 20 | > 20 | 9.28 | > 20 | > 100 | > 20 | > 100 | > 20 |  |  | COc1ccc(SC2=C(O)C(=O)c3cccc(O)c3C2=O)cc1 [Compound 28, 3,8-Dihydroxy-2-((4-methoxyphenyl)thio)naphthalene-1,4-dione] |  |  |  |  |  |  |  | 
 |  | 0 |  |  |  |  |  |  |  | CNC(=C[N+](=O)[O-])NCCSCc1ccc(CN(C)C)o1 [Ranitidine, reference compound] |  |  |  |  |  |  |  | 

SMILES | IC50 [1] [µM] | IC50 [2] [µM] | Permeability (%) [3, 11] [%] | IC50 [4] [µM] | IC50 [5] [µM] | IC50 [6, 12] [µM] | IC50 [7] [µM] | IC50 [8] [µM] | IC50 [10] [µM] | IC50 ([6]; RPMI-8226, 72 h, read-out: RPMI8226 IC50, 72 h) [µM] | Permeability (%) [3] [%] | S.I. (EAhy926/RPMI8226), selectivity index [6] | IC50 [9] [µM] | effect on U46619-induced platelet aggregation [1, 13] | effect on collagen-induced platelet aggregation [2, 13] | effect on cell viability of A549 ([5]; unpublished data) | effect on cell viability of RPMI8226 ([6]; unpublished data) | effect on cell viability of MDA-MB-231 ([7]; unpublished data)
Cc1ccc(SC2=CC(=O)c3cccc(O)c3C2=O)cc1 [Compound 12, 2-(p-Tolylthio)-8-hydroxynaphthalene-1,4-dione] | 1.82 ± 0.17 | 0.76 ± 0.02 |  | > 20 | > 100 | 3.83 ± 0.28 | 25.2 ± 2.58 | 1.84 ± 0.05 | 3.45 ± 0.18 |  | 0.1 | >5.2 | > 20 |  |  |  |  | 
